Among the data in US20060040997A1, “Benzthiazole-3 oxides useful for the treatment of proliferative disorders” (priority 2003, published 2006) are IC50 and melting point values, retold here.

Read-outs that look alike come from different tables or passages of the source. Bounds are passed on as bounds.

What is called IC50 is the concentration that gives 50% inhibition. One may read the melting point as the temperature, or range, at which the solid turns liquid.

One data set deals with U2OS. The data set can be described thus: 72-h MTT cellular proliferation assay, U2OS. It is filed as cell-based. To be noted: Homo sapiens, read-out: Anti-proliferative activity on tumour cell lines (MTT assay) U2OS IC50. As for the experimental part:
(§1) Cellular proliferation assays using human tumour cell lines (obtained from the American Type Culture Collection, 10801 University Boulevard, Manessas, Va. 20110-2209, USA) were carried out. Standard 72-h MTT (thiazolyl blue; 3-[4,5-dimethylthiazol-2-yl]-2,5-diphenyltetrazolium bromide) assays were performed (Loveland et al, Biochem. Int., 1992, 27, 501; Haselsberger et al, Anti Cancer Drugs, 1996, 7, 331). In short: cells were seeded into 96-well plates according to doubling time and incubated overnight at 37° C. Test compounds were made up in DMSO and a ⅓ dilution series prepared in 100 μL cell media, added to cells (in triplicates) and incubated for 72 h at 37° C. MTT was made up as a stock of 5 mg/mL in cell media and filter-sterilised. Media was removed from cells followed by a wash with 200 μL PBS. MTT solution was then added at 20 μL per well and incubated in the dark at 37° C. for 4 h. MTT solution was removed and cells again washed with 200 μL PBS. MTT dye was solubilised with 200 μL per well of DMSO with agitation.
In general terms: Formazan colour is commonly taken as a measure of viable cells.

A further data set concerns A549. The data set is described as follows: 72-h MTT cellular proliferation assay, A549. In kind it is cell-based. Particulars: Homo sapiens, A549, 72 h; read-out: Anti-proliferative activity on tumour cell lines (MTT assay) A549 IC50. As for the experimental part: as §1
For another data set, the system named is HELA. The data set is described as follows: 72-h MTT cellular proliferation assay, HELA. In kind it is cell-based. Particulars: Homo sapiens, read-out: Anti-proliferative activity on tumour cell lines (MTT assay) HELA IC50. As for the experimental part: as §1
The test system of the next data set is MCF-7. The data set is described as follows: 72-h MTT cellular proliferation assay, MCF-7. It is filed as cell-based. Particulars: Homo sapiens, MCF7; MCF-7, 72 h; read-out: Anti-proliferative activity on tumour cell lines (MTT assay) MCF-7 IC50. As for the experimental part:
as §1

A further data set concerns the target T1, human PLK1 (Homo sapiens, UniProt P53350).
T1 construct: A full-length human PLK1 (XM—047240) (amino acids 1-603) clone; His6 (N); made in house; host or cells: Sf9 insect cells (baculovirus) for PLK1; E. coli BL21(DE3) RIL for CDC25C
The data set can be described thus: PLK1 protein kinase assay (CDC25C phosphorylation, [γ-32P]-ATP). In kind it is biochemical. To be noted: read-out: PLK1 kinase inhibition IC50. The source says:
A full-length human CDC25C clone was isolated by PCR from HeLa mRNA and was inserted on a BamHI-HindIII fragment into pRsetA. The amino terminal fragment of CDC25C (encoding residues 1-300) was excised from this vector and inserted into pET28a (between the NcoI and BamHI sites). Expression was under the control of the T7 promoter, and the encoded protein contained a His6 tag at the carboxyl terminus. The vector was transformed into E. coli strain BRL(DE3) pLysS for expression experiments. CDC25C was expressed in BL21(DE3) RIL bacteria cells, grown in LB media at 37° C. until OD600nm of 0.6 was reached. The expression was induced with 1 mM IPTG and the bacterial culture was grown further for 3 h. The bacteria were harvested by centrifugation and the cell pellet was re-suspended in 50 mM Tris pH 7.5 and 10% sucrose, flash frozen, and stored at −70° C. until used. CDC25C protein was purified from E. coli inclusion bodies. The inclusion bodies were isolated in a buffer (50 mM Tris pH 8.0, 2 mM EDTA, 100 mM NaCl, 0.5% triton X-100). After denaturation in the presence of 6 M urea, the protein was refolded via slow dialysis of the urea. The protein was stored in 25 mM Tris pH 8.0, 100 mM NaCl, 1 mM DTT, 1 mM EDTA and 10% glycerol at −70° C. until used.
A full-length human PLK1 (XM—047240) (amino acids 1-603) clone was amplified from a foetal lung cDNA library using primers incorporating restriction enzyme sites. […] The 3′ primer ([…]) incorporated a stop codon prior to the EcoR1 site. The PCR product was cloned into the Nhe1/EcoR1 sites of a baculovirus expression vector, pSSP 1. […] Cells were only used for expression in logarithmic growth phase. […] The flasks were incubated at 27° C., with shaking at 100 r.p.m. for 48 h. On harvest, cell density and viability was determined, the cultures spun down at 2500 r.p.m. for 5 min and washed with ice-cold phosphate-buffered saline. The wash was re-spun at the same speed and the pellet was snap frozen. PLK1 protein was purified on a metal affinity column.
PLK1 protein kinase assays were carried out using a 96-well plate format by incubating CDC25C (2 μg/well) with PLK1 (1 μg/well) in 20 mM Tris/HCl buffer pH 7.5, supplemented with 25 mM β-glycerophosphate, 5 mM EGTA, 1 mM DTT and 1 mM NaVO3. Serial dilutions of test compound in assay buffer were added. […] The reaction mixture was incubated at 30° C. for 1 h, then stopped with 75 mM aq orthophosphoric acid, transferred onto a 96-well P81 filter plate (Whatman), dried, and the extent of CDC25C phosphorylation was assessed by scintillation counting using a Packard TopCount plate reader. The raw assay data was analysed by non-linear regression analysis parameters and IC50 values were determined using the equation: y=A+((B−A)/(1+((C/x)ˆD))), where y is % inhibition, A is minimum inhibition, B is maximum inhibition, C is EC50, and D is the slope factor.

T1 sequence (P53350 whole entry, the tested form may be a part): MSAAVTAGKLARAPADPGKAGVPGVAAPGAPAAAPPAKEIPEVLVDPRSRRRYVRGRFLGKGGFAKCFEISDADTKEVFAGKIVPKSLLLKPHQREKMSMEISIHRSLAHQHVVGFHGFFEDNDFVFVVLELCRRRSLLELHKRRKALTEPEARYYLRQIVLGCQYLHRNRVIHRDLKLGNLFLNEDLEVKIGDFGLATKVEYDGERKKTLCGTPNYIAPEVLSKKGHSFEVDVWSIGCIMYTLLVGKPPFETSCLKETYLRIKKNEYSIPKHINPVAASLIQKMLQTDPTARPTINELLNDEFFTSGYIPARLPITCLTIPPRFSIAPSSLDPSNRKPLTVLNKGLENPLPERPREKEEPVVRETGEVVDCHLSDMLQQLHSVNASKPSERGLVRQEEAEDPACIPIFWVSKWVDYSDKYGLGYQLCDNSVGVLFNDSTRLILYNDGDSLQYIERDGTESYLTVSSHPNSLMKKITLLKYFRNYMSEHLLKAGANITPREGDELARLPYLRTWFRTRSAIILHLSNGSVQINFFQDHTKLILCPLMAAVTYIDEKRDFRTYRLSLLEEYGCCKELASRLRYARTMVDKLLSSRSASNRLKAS

On to `NC(=O)c1sc2c([N+](=O)[O-])cc(F)cc2[n+]1[O-]` [Compound 1f, 5-Fluoro-7-nitro-3-oxy-benzothiazole-2-carboxylic acid amide], for which the IC50 is 11.5 ± 2 µM in the data set with U2OS; 3.9 ± 0.2 µM with A549; 10.2 ± 2.4 µM in the data set on HELA; 1.6 ± 0.2 µM in the data set with MCF-7; 50 to 100 µM on human PLK1 (kinase assay at 10 μM ATP).
Regarding `N#Cc1sc2c([N+](=O)[O-])cc(C(F)(F)F)cc2[n+]1[O-]` [Compound 1h, 7-Nitro-3-oxy-5-trifluoromethyl-benzothiazole-2-carbonitrile], the IC50 in the data set with U2OS worked out at 9.5 ± 1.7 µM; in the data set on A549, 10 ± 0.08 µM; with HELA, 10.2 ± 3.3 µM; in the data set on MCF-7 it was 2.1 ± 1.5 µM; at human PLK1 (100 μM ATP), 21 µM.
Regarding `O=C(c1sc2c([N+](=O)[O-])cc(C(F)(F)F)cc2[n+]1[O-])N1CCCC1` [Compound 1b, (7-Nitro-3-oxy-5-trifluoromethyl-benzothiazol-2-yl)-pyrrolidin-1-yl-methanone], the IC50 in the data set on U2OS was 16 µM; in the data set on A549, 5.2 µM; in the data set on HELA, 12 µM; on human PLK1 (100 μM ATP), 56 ± 19 µM.
As for `NC(=O)c1sc2c([N+](=O)[O-])cc(SC(F)(F)F)cc2[n+]1[O-]` [Compound 1j, 7-Nitro-3-oxy-5-trifluoromethylsulfanyl-benzothiazole-2-carboxylic acid amide], the melting point is 255 to 256 °C. Further, the IC50 in the data set with U2OS turned out to be 8.2 ± 0.3 µM. Moreover, in the data set on A549, the concentration for half-maximal inhibition (IC50) was 4 ± 1.8 µM. Besides, in the data set on HELA, the IC50 amounted to 6 ± 0.8 µM. In the data set on MCF-7, the IC50 came out at 2.5 ± 1 µM.
In turn, `O=C(NO)c1sc2c([N+](=O)[O-])cc(C(F)(F)F)cc2[n+]1[O-]` [Compound 1e, 7-Nitro-3-oxy-5-trifluoromethyl-benzothiazole-2-carboxylic acid hydroxyamide] came in with a melting point of 230 to 231 °C. Moreover, the IC50 in the data set on U2OS was 29.4 ± 1.2 µM. For the same compound, the IC50 in the data set on A549 came out at 13.3 ± 0.6 µM. In the data set with HELA, the IC50 was determined as 21 ± 4 µM. In addition, in the data set on MCF-7, the IC50 was 9 ± 1 µM. In addition, the IC50 on human PLK1 (100 μM ATP) fell in the range of 50 to 100 µM.
Consider `N#Cc1cc([N+](=O)[O-])c2sc(C(N)=O)[n+]([O-])c2c1` [Compound 1d, 5-Cyano-7-nitro-3-oxy-benzothiazole-2-carboxylic acid amide], for which the 50% inhibitory concentration (IC50) was found to be 6.7 ± 1.2 µM with U2OS; 4.2 ± 1.5 µM with A549; 6.6 ± 0.8 µM in the data set on HELA; 2 ± 2 µM in the data set on MCF-7; 10 ± 7 µM at human PLK1 (100 μM ATP).
As for `O=[N+]([O-])c1cc(C(F)(F)F)cc2c1sc(O)[n+]2[O-]` [Compound 1i, 7-Nitro-3-oxy-5-trifluoromethyl-benzothiazol-2-ol], the half-inhibitory concentration (IC50) in the data set on U2OS is 88 ± 10 µM; in the data set on A549 it was 48 ± 5 µM; with HELA, 56 ± 2 µM; with MCF-7, 35 ± 2 µM; on human PLK1 (100 μM ATP), 39 µM.
The compound `NNC(=O)c1sc2c([N+](=O)[O-])cc(C(F)(F)F)cc2[n+]1[O-]` [Compound 1c, 7-Nitro-3-oxy-5-trifluoromethyl-benzothiazole-2-carboxylic acid hydrazide] showed a melting point of 229 to 230 °C. The IC50 with U2OS was 35 ± 3 µM. Moreover, the IC50 with A549 was found to be 21 ± 3 µM. The IC50 in the data set with HELA amounted to 16 ± 10 µM. Moreover, the 50% inhibitory concentration (IC50) in the data set on MCF-7 worked out at 19 ± 16 µM. Moreover, on human PLK1 (100 μM ATP), the half-maximal inhibitory concentration (IC50) is above 100 µM.
As to `O=C(NO)c1sc2c([N+](=O)[O-])cc(F)cc2[n+]1[O-]` [Compound 1g, 5-Fluoro-7-nitro-3-oxy-benzothiazole-2-carboxylic acid hydroxyamide], the melting point was 224 to 225 °C. In addition, in the data set with U2OS, the IC50 worked out at 7.2 ± 3.6 µM. In addition, in the data set with A549, the IC50 was found to be 7.7 ± 2.9 µM. Also, the IC50 with HELA came out at 14 ± 5 µM. Moreover, the IC50 in the data set on MCF-7 was 6.1 ± 1.1 µM. The IC50 on human PLK1 (100 μM ATP) was determined as 67 ± 7 µM.
For the compound `NC(=O)c1sc2c([N+](=O)[O-])cc(C(F)(F)F)cc2[n+]1[O-]` [Compound 1a, 7-Nitro-3-oxy-5-trifluoromethyl-benzothiazole-2-carboxylic acid amide], the IC50 was 47 ± 7 µM with U2OS, 24 ± 3 µM in the data set on A549, 16 ± 8 µM with HELA and 12.6 ± 6.3 µM in the data set on MCF-7.
